Measurements taken from PubChem BioAssay (NCI).
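Test compounds were applied to cells in 96-well plates for 48 hours at 5 doses. At the GI50, growth is halved. TGI denotes the concentration required for complete inhibition of growth.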

Experiments:
Assay in all cases: NCI-60 cell line screen, 48 h
SNB-75 CNS = tested on: SNB-75 CNS
786-0 renal = tested on: 786-0 renal
HS 578T breast = tested on: HS 578T breast
SF-268 CNS = tested on: SF-268 CNS
T-47D breast = tested on: T-47D breast
SW-620 colon = tested on: SW-620 colon
SK-MEL-28 melanoma = tested on: SK-MEL-28 melanoma
SNB-19 CNS = tested on: SNB-19 CNS
SK-OV-3 ovarian = tested on: SK-OV-3 ovarian
UACC-62 melanoma = tested on: UACC-62 melanoma
DU-145 prostate = tested on: DU-145 prostate
OVCAR-8 ovarian = tested on: OVCAR-8 ovarian
LOX IMVI melanoma = tested on: LOX IMVI melanoma
MDA-N = tested on: MDA-N
K-562 leukemia = tested on: K-562 leukemia
RPMI-8226 leukemia = tested on: RPMI-8226 leukemia

| SMILES | TGI (SNB-75 CNS) | TGI (786-0 renal) | TGI (HS 578T breast) | TGI (SF-268 CNS) | TGI (T-47D breast) | TGI (SW-620 colon) | TGI (SK-MEL-28 melanoma) | TGI (SNB-19 CNS) | TGI (SK-OV-3 ovarian) | TGI (UACC-62 melanoma) | TGI (DU-145 prostate) | TGI (OVCAR-8 ovarian) | TGI (LOX IMVI melanoma) | TGI (MDA-N) | GI50 (K-562 leukemia) | TGI (K-562 leukemia) | TGI (RPMI-8226 leukemia) |
| --- | --- | --- | --- | --- | --- | --- | --- | --- | --- | --- | --- | --- | --- | --- | --- | --- | --- |
| Cc1c2c(n(Cc3ccccn3)c1C)NN=C(C#N)S2(=O)=O | > 100 µM | > 100 µM | > 100 µM | > 100 µM | > 100 µM | > 100 µM | > 100 µM | > 100 µM | > 100 µM | > 100 µM | > 100 µM | > 100 µM | > 100 µM | > 100 µM |  |  |  |
| NS(=O)(=O)c1ccc(CNc2nc(-c3cccs3)nc3ccc(I)cc23)cc1 | 47.1 µM | 37.6 µM |  | 61.6 µM | 1.81 µM | 83.8 µM | 40.2 µM | 39.7 µM | 52.6 µM | 31.5 µM | 30.3 µM | 37.7 µM | 29.3 µM | 41.9 µM | 36.7 µM | > 100 µM | 49.5 µM |
| O=C(OCC1OC(c2nn[nH]n2)C(OC(=O)c2ccccc2)C1OC(=O)c1ccccc1)c1ccccc1 (stereo unspecified) | > 100 µM | > 100 µM |  | > 100 µM |  | > 100 µM |  | > 100 µM | > 100 µM | > 100 µM | > 100 µM | > 100 µM | > 100 µM | > 100 µM |  | > 100 µM | > 100 µM |
| COc1cccc(N2C(=O)CSC2c2cc(OC)c(OC)c(OC)c2)c1 (stereo unspecified) |  | > 100 µM | > 100 µM | > 100 µM |  | > 100 µM | > 100 µM | 63 µM | > 100 µM | > 100 µM | 39.7 µM | > 100 µM | > 100 µM | 37.1 µM |  | > 100 µM | > 100 µM |
| COc1ccc2c(c1)N=C1CSC(c3cc([N+](=O)[O-])ccc3Cl)N1C2 (stereo unspecified) | 47.5 µM | 89.3 µM | > 100 µM | > 100 µM | > 100 µM | > 100 µM | 83.7 µM | > 100 µM | 65.1 µM | 42.1 µM |  | > 100 µM | > 100 µM | > 100 µM |  | > 100 µM | 57.6 µM |
| CCOC(=O)c1[nH]c2ccccc2c1C(=O)C[C@H](NC(=O)C(F)(F)F)C(=O)OC | > 100 µM | > 100 µM | > 100 µM | > 100 µM |  | > 100 µM | > 100 µM | > 100 µM |  |  | > 100 µM | > 100 µM | > 100 µM | > 100 µM |  | > 100 µM | > 100 µM |
| CCO[C@]12C[C@H](OC)[C@@]3(O)CC(C1[C@H]3O)C13C4C2[C@H](OC)C1[C@](COC)(CN4CC)[C@H](O)C[C@@H]3OC (stereo partly specified) |  |  |  | > 100 µM |  | > 100 µM | > 100 µM | > 100 µM | > 100 µM | > 100 µM |  | > 100 µM | > 100 µM |  |  | > 100 µM | > 100 µM |
| O=C(OC(=C(c1ccccc1)c1ccccc1)N1CCCC1=S)C(c1ccccc1)c1ccccc1 | > 10 µM | > 10 µM | > 10 µM | > 10 µM | > 10 µM | > 10 µM | > 10 µM | > 10 µM | > 10 µM | > 10 µM | > 10 µM | > 10 µM | > 10 µM |  |  | > 10 µM | > 10 µM |
| FC(F)(Sc1ccccc1)c1nc2ccccc2o1 |  | > 100 µM |  | > 100 µM | > 100 µM | > 100 µM | > 100 µM |  | 69.4 µM | > 100 µM | > 100 µM | > 100 µM |  | > 100 µM |  | > 100 µM | > 100 µM |
| COc1ccc2oc(C(=O)N3CC(CCl)c4ccc([N+](=O)[O-])cc43)cc2c1 (stereo unspecified) | 79.3 µM | 46 µM | 62.2 µM | 53.8 µM | > 100 µM | > 100 µM | > 100 µM | > 100 µM | 48.7 µM | > 100 µM | > 100 µM | > 100 µM | > 100 µM |  |  | > 100 µM | > 100 µM |
| CN(CCCCN(C)CCc1ccc(Cl)c(Cl)c1)CCCCN1CCCC1 | 3.72 µM | 2.55 µM | 3.23 µM | 3.12 µM | 3.94 µM | 3.02 µM | 1.06 µM | 5.23 µM | 6.05 µM | 3.42 µM | 8.92 µM | 6.25 µM | 1.66 µM | 2.64 µM |  |  |  |
| CN(/N=C/C=N/N(C)C1=NCCCCN1)C1=NCCCCN1 | > 100 µM | > 100 µM | > 100 µM | > 100 µM | > 100 µM | > 100 µM | > 100 µM | > 100 µM | > 100 µM | > 100 µM |  | > 100 µM | > 100 µM | > 100 µM |  | > 100 µM |  |
| CCOC(=O)C1=c2[nH]c3cccc4cccc(c43)n2C=C(C(C)=O)C1CC(C)=O (stereo unspecified) | > 100 µM | > 100 µM |  |  | > 100 µM | > 100 µM | > 100 µM | > 100 µM | > 100 µM | > 100 µM | > 100 µM | > 100 µM | > 100 µM | > 100 µM |  | > 100 µM | > 100 µM |
| CCOC(=O)CCC(NC(=O)c1ccc(OCc2nc3ccccc3n3cccc23)cc1)C(=O)OCC (stereo unspecified) | > 100 µM | > 100 µM | > 100 µM | > 100 µM | > 100 µM | > 100 µM | > 100 µM | > 100 µM | > 100 µM | > 100 µM | > 100 µM | > 100 µM | > 100 µM | > 100 µM |  | > 100 µM |  |
| O=C(NCCO)Nc1c(C(F)(F)F)cc(-c2ccccc2)[nH]c1=O |  | > 100 µM |  |  | > 100 µM | > 100 µM | > 100 µM | > 100 µM | > 100 µM | > 100 µM | > 100 µM | > 100 µM | > 100 µM | > 100 µM |  | > 100 µM | > 100 µM |
| CCOP(=O)(OCC)/C(C#N)=C/c1cccn1CC(C)C | > 100 µM | > 100 µM |  | > 100 µM | > 100 µM | > 100 µM | > 100 µM | > 100 µM | > 100 µM | > 100 µM | > 100 µM | > 100 µM | > 100 µM | > 100 µM |  | > 100 µM |  |
